Here are results for 78 molecules from ChEMBL document CHEMBL3352358, “Discovery of 2-(cyclohexylmethylamino)pyrimidines as a new class of reversible valosine containing protein inhibitors” (J Med Chem, 2014).

In test [1] the target is Transitional endoplasmic reticulum ATPase (Homo sapiens, UniProt P55072). In words: biochemical. Format: cell-based.
Description: Inhibition of human full length VCP (2 to 806 residues) expressed in High5 insect cells assessed as reduction in ATPase activity by measuring ADP formation by NADH coupled assay
A short description of test [2]: Inhibition of cell proliferation of human HCT116 cells after 72 hrs by thermostable firefly luciferase based assay. Format: functional, HCT-116.
Setting [3] is: Homo sapiens, HCT-116, 72 h, read-out: IC50.

Transitional endoplasmic reticulum ATPase, sequence (P55072 whole entry): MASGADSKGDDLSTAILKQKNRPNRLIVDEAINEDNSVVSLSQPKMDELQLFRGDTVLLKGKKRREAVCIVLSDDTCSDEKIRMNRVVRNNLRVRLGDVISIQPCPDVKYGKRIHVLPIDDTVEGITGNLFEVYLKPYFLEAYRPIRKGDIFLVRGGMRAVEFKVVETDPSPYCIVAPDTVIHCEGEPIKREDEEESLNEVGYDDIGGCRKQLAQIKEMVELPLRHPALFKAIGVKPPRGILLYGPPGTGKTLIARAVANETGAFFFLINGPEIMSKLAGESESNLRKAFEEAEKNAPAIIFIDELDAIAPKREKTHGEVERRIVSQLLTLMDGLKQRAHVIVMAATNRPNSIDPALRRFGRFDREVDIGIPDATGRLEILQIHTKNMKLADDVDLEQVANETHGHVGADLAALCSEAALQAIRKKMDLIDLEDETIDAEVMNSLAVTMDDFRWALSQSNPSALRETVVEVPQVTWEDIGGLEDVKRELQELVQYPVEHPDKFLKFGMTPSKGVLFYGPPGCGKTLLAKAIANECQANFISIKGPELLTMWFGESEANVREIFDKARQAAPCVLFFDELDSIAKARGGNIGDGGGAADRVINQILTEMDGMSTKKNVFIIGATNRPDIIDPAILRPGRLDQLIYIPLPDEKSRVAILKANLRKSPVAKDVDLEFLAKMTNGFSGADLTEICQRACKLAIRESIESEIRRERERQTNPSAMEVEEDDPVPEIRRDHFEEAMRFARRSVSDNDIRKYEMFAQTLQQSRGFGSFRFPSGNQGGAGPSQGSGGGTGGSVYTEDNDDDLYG

For the molecule `O=C(O)[C@H]1CC[C@H](CNc2nc(-c3ccccc3)cc(-c3ccoc3)n2)CC1`, in test [1], it took 2.19 µM to reach half-maximal inhibition (IC50).
For the molecule `O=C(O)[C@H]1CC[C@H](CNc2nc(Nc3ccccc3)cc(-c3ccccc3)n2)CC1`, the 50% inhibitory concentration (IC50) in test [1] is 0.036 µM.
For `O=C(O)[C@H]1CC[C@H](CNc2nc(-c3ccccc3)cc(-c3cccc([N+](=O)[O-])c3)n2)CC1`, it took 0.201 µM to reach half-maximal inhibition in test [1] (IC50).
On the same count and under the same terms, as for `Cc1cc(-c2ccc(F)cc2)nc(NC[C@H]2CC[C@H](C(=O)O)CC2)n1`, the figure is 8.4 µM; as for `COc1cccc(CNc2cc(-c3ccccc3)nc(NC[C@H]3CC[C@H](C(N)=O)CC3)n2)c1`, 5.65 µM; as for `NC(=O)[C@H]1CC[C@H](CNc2nc(NCc3ccc(Cl)cc3)cc(-c3ccccc3)n2)CC1`, 3.47 µM.
The same measure, in the same setting: under `COc1ccc(-c2cc(C)nc(NC[C@H]3CC[C@H](C(=O)O)CC3)n2)cc1` stands above 37 µM; under `O=C(O)[C@H]1CC[C@H](CNc2nc(-c3ccccc3)cc(-c3ccc([N+](=O)[O-])cc3)n2)CC1`, 2.19 µM.
Regarding `CC(=O)Nc1ccc(-c2cc(NCc3ccccc3)nc(NC[C@H]3CC[C@H](C(N)=O)CC3)n2)cc1`, the results for the IC50 in test [1] and in test [2] (setting [3]) were 0.059 µM and 4.31 µM, respectively.
The molecule `O=C(O)[C@H]1CC[C@H](CNc2nc(-c3ccccc3)cc(-c3ccccc3F)n2)CC1` registered an IC50 in test [1] of 0.141 µM.
The same measure, in the same setting: as for `Cc1cc(-c2ccccc2)nc(S(=O)(=O)Cc2ccc(C(=O)O)cc2)n1`, the figure is above 37 µM; as for `O=C(O)[C@H]1CC[C@H](CNc2nc(NC3CCCCC3)cc(-c3ccccc3)n2)CC1`, 4.31 µM.
For the molecule `Cc1cc(-c2ccccc2)nc(NCc2cccc(C(=O)O)c2)n1`, in test [1], the IC50 is above 37 µM.
As to `NC(=O)[C@H]1CC[C@H](CNc2nc(NCc3ccccc3)cc(-c3ccc4[nH]ncc4c3)n2)CC1`, the IC50 in test [1] was found to be 0.071 µM; in test [2] (setting [3]), 5.72 µM.
Turning to `Cc1cc(-c2cccc(Cl)c2)nc(NC[C@H]2CC[C@H](C(=O)O)CC2)n1`, in test [1], the IC50 is 4.8 µM.
Take `O=C(O)[C@H]1CC[C@H](CNc2nc(NCc3ccccc3)cc(-c3ccccc3)n2)CC1`: the IC50 is 0.027 µM in test [1] and above 20 µM in test [2] (setting [3]).
Molecule `COc1ccccc1CNc1cc(-c2ccccc2)nc(NC[C@H]2CC[C@H](C(N)=O)CC2)n1` registered an IC50 in test [1] of 8.86 µM.
The same measure, in the same setting: as for `Cc1cc(-c2ccccc2)nc(Sc2ccc(C(=O)O)cc2)n1`, the figure is above 37 µM.
In the case of `NC(=O)[C@H]1CC[C@H](CNc2nc(NCc3ccccc3)cc(-c3ccc4[nH]ccc4c3)n2)CC1`, the IC50 in test [1] turned out to be 0.082 µM; in test [2] (setting [3]) it was 5.64 µM.
`O=C(O)[C@H]1CC[C@H](CNc2nc(-c3ccccc3)cc(-c3ccncc3)n2)CC1`: the IC50 in test [1] turned out to be 1.67 µM.
`Cc1cc(-c2ccccc2)nc(SCCc2ccc(C(=O)O)cc2)n1`: in test [1], the IC50 is 20.5 µM.
For the molecule `CC(=O)c1cccc(-c2cc(NCc3ccccc3)nc(NC[C@H]3CC[C@H](C(N)=O)CC3)n2)c1`, the IC50 worked out at 0.087 µM in test [1] and 6.55 µM in test [2] (setting [3]).
For `NC(=O)[C@H]1CC[C@H](CNc2nc(NCc3ccccc3)cc(-c3ccc(Cl)cc3)n2)CC1`, the IC50 in test [1] was 0.106 µM; in test [2] (setting [3]) it was 7.32 µM.
In test [1], `O=C(O)[C@H]1CC[C@H](CNc2nc(-c3ccccc3)cc(-c3ccccc3Cl)n2)CC1` gave an IC50 of 0.7 µM.
Same read-out and setting: under `NC(=O)[C@H]1CC[C@H](CNc2nc(NCc3ccc(F)cc3)cc(-c3ccccc3)n2)CC1` stands 2.43 µM.
Take `CC(=O)c1ccc(-c2cc(NCc3ccccc3)nc(NC[C@H]3CC[C@H](C(N)=O)CC3)n2)cc1`: the IC50 in test [1] is 0.102 µM; in test [2] (setting [3]), above 10 µM.
The molecule `Cc1ccc(CNc2cc(-c3ccccc3)nc(NC[C@H]3CC[C@H](C(N)=O)CC3)n2)cc1` yielded an IC50 in test [1] of 2.18 µM.
With `NC(=O)[C@H]1CC[C@H](CNc2nc(NCc3ccccc3)cc(-c3csc4ccccc34)n2)CC1`, the half-inhibitory concentration (IC50) was 0.074 µM in test [1] and 5.82 µM in test [2] (setting [3]).
In test [1], `O=C(O)[C@H]1CC[C@H](CNc2nc(-c3ccccc3)cc(N3CCOCC3)n2)CC1` came in with a half-maximal inhibitory concentration (IC50) above 10 µM.
Still for that read-out and setting: under `CS(=O)(=O)c1ccc(-c2cc(-c3ccccc3)nc(NC[C@H]3CC[C@H](C(=O)O)CC3)n2)cc1` stands 1.09 µM; under `O=C(O)[C@H]1CC[C@H](CNc2nc(-c3ccccc3)cc(-c3ccco3)n2)CC1`, 0.57 µM; under `Cc1cc(-c2ccccc2)nc(SCCC(=O)O)n1`, above 37 µM.
On the same count and under the same terms, as for `Cc1cccc(CNc2cc(-c3ccccc3)nc(NC[C@H]3CC[C@H](C(N)=O)CC3)n2)c1`, the figure is 1.68 µM.
In the case of `NC(=O)[C@H]1CC[C@H](CNc2nc(NCc3ccccc3)cc(-c3ccccc3)n2)CC1`, the figures for the half-maximal inhibitory concentration (IC50) in test [1] and in test [2] (setting [3]) were 0.127 µM and 9.58 µM, respectively.
Consider `O=C(O)[C@H]1CC[C@H](CNc2nc(-c3ccccc3)cc(-c3ccc4[nH]ccc4c3)n2)CC1`, for which the IC50 in test [1] worked out at 0.15 µM.
Still for that read-out and setting: as for `COc1ccc(-c2cc(-c3ccccc3)nc(NC[C@H]3CC[C@H](C(=O)O)CC3)n2)cc1`, the figure is 0.921 µM.
Regarding `NC(=O)[C@H]1CC[C@H](CNc2nc(NCc3ccccc3)cc(-c3ccccc3F)n2)CC1`, the IC50 is 0.046 µM in test [1] and above 10 µM in test [2] (setting [3]).
In the case of `NC(=O)[C@H]1CC[C@H](CNc2nc(NCc3cccc(Cl)c3)cc(-c3ccccc3)n2)CC1`, 2.76 µM corresponded to half-maximal inhibition in test [1] (IC50).
Molecule `COc1cccc(-c2cc(-c3ccccc3)nc(NC[C@H]3CC[C@H](C(=O)O)CC3)n2)c1` registered an IC50 in test [1] of 0.543 µM.
Still for that read-out and setting: as for `Cc1cc(-c2ccccc2)nc(NC[C@H]2CC[C@H](C(=O)O)CC2)n1`, the figure is 2.6 µM.
In test [1], `O=C(O)[C@H]1CC[C@H](CNc2nc(-c3ccccc3)cc(-c3ccc(Cl)cc3)n2)CC1` came in with an IC50 of 0.221 µM.
The same measure, in the same setting: under `Cc1cc(-c2ccc(Cl)cc2)nc(NC[C@H]2CC[C@H](C(=O)O)CC2)n1` stands 2.6 µM.
The same measure, in the same setting: as for `Cc1ccc(-c2cc(-c3ccccc3)nc(NC[C@H]3CC[C@H](C(=O)O)CC3)n2)cc1`, the figure is 0.577 µM; as for `Cc1cccc(-c2cc(-c3ccccc3)nc(NC[C@H]3CC[C@H](C(=O)O)CC3)n2)c1`, 0.578 µM.
Consider `NC(=O)[C@H]1CC[C@H](CNc2nc(NCc3ccccc3)cc(-c3cccnc3)n2)CC1`, for which the IC50 was 0.109 µM in test [1] and above 10 µM in test [2] (setting [3]).
In the same order, the values of `NNC(=O)[C@H]1CC[C@H](CNc2nc(NCc3ccccc3)cc(-c3ccccc3)n2)CC1` are 0.986 µM and above 20 µM.
For `COc1ccc(CNc2cc(-c3ccccc3)nc(NC[C@H]3CC[C@H](C(N)=O)CC3)n2)cc1`, it took 5.04 µM to reach half-maximal inhibition in test [1] (IC50).
In test [1], `COc1cccc(-c2cc(C)nc(NC[C@H]3CC[C@H](C(=O)O)CC3)n2)c1` displayed an IC50 above 37 µM.
Still for that read-out and setting: as for `NC(=O)[C@H]1CC[C@H](CNc2nc(NCc3cccc([N+](=O)[O-])c3)cc(-c3ccccc3)n2)CC1`, the figure is 4.61 µM; as for `Cc1cc(-c2ccccc2)nc(SCc2ccc(C(=O)O)cc2)n1`, 4.8 µM.
In test [1], `NC(=O)[C@H]1CC[C@H](CNc2nc(NCc3cccc(F)c3)cc(-c3ccccc3)n2)CC1` displayed an IC50 of 0.474 µM.
On the same count and under the same terms, as for `O=C(O)[C@H]1CC[C@H](CNc2nc(-c3ccccc3)cc(-c3cccnc3)n2)CC1`, the figure is 1.2 µM; as for `Cc1ccccc1-c1cc(-c2ccccc2)nc(NC[C@H]2CC[C@H](C(=O)O)CC2)n1`, 0.673 µM; as for `COc1ccccc1-c1cc(-c2ccccc2)nc(NC[C@H]2CC[C@H](C(=O)O)CC2)n1`, 3.04 µM.
In the case of `O=C(O)[C@H]1CC[C@H](CNc2nccc(-c3ccccc3)n2)CC1`, in test [1], the IC50 was 8.7 µM.
`CS(=O)(=O)c1ccc(CNc2cc(-c3ccccc3)nc(NC[C@H]3CC[C@H](C(N)=O)CC3)n2)cc1` displayed a half-inhibitory concentration (IC50) in test [1] above 10 µM.
On the same count and under the same terms, as for `NC(=O)[C@H]1CC[C@H](CNc2nc(NCc3ccccc3F)cc(-c3ccccc3)n2)CC1`, the figure is 1.69 µM.
Same read-out and setting: under `O=C(O)[C@H]1CC[C@H](CNc2nc(-c3ccccc3)cc(-c3cccc(Cl)c3)n2)CC1` stands 0.483 µM.
On the same count and under the same terms, as for `Nc1ccc(-c2cc(-c3ccccc3)nc(NC[C@H]3CC[C@H](C(=O)O)CC3)n2)cc1`, the figure is 0.112 µM.
For the molecule `COc1ccccc1-c1cc(C)nc(NC[C@H]2CC[C@H](C(=O)O)CC2)n1`, the IC50 in test [1] was above 37 µM.
For `NC(=O)[C@H]1CC[C@H](CNc2nc(NCc3ccccc3Cl)cc(-c3ccccc3)n2)CC1`, in test [1], the IC50 came to 6.94 µM.
`Cc1cc(-c2ccccc2C)nc(NC[C@H]2CC[C@H](C(=O)O)CC2)n1` yielded an IC50 in test [1] above 37 µM.
Still for that read-out and setting: under `NC(=O)[C@H]1CC[C@H](CNc2nc(NCc3ccc(S(N)(=O)=O)cc3)cc(-c3ccccc3)n2)CC1` stands 5.17 µM; under `O=C(O)[C@H]1CC[C@H](CNc2nc(-c3ccccc3)cc(-c3ccccc3)n2)CC1`, 0.3 µM; under `O=C(O)[C@H]1CC[C@H](CNc2nc(-c3ccccc3)cc(-c3cccc(F)c3)n2)CC1`, 0.552 µM.
Still for that read-out and setting: as for `CS(=O)(=O)c1cccc(-c2cc(-c3ccccc3)nc(NC[C@H]3CC[C@H](C(=O)O)CC3)n2)c1`, the figure is 0.116 µM.
Consider `Cc1ccccc1CNc1cc(-c2ccccc2)nc(NC[C@H]2CC[C@H](C(N)=O)CC2)n1`, for which the IC50 in test [1] is 9.29 µM.
The same measure, in the same setting: as for `Cc1cccc(-c2cc(C)nc(NC[C@H]3CC[C@H](C(=O)O)CC3)n2)c1`, the figure is 11.4 µM; as for `NC(=O)[C@H]1CC[C@H](CNc2nc(NCc3cccc(S(N)(=O)=O)c3)cc(-c3ccccc3)n2)CC1`, 7.61 µM.
As to `Cc1cc(-c2ccccc2)nc(SCc2ccccc2)n1`, in test [1], the IC50 is above 37 µM.
Still for that read-out and setting: under `Cc1cc(-c2ccccc2)nc(SCc2ccc(C(=O)NS(=O)(=O)C(F)(F)F)cc2)n1` stands 21.6 µM.
Still for that read-out and setting: as for `[N-]=[N+]=Nc1cccc(-c2cc(-c3ccccc3)nc(NC[C@H]3CC[C@H](C(=O)O)CC3)n2)c1`, the figure is 0.879 µM; as for `Nc1ccc(-c2cc(-c3ccccc3)nc(NC[C@H]3CC[C@H](C(=O)O)CC3)n2)cc1[N+](=O)[O-]`, 0.06 µM; as for `Cc1cc(-c2ccccc2)nc(NCc2ccc(C(=O)O)cc2)n1`, 15.4 µM.
The same measure, in the same setting: under `NC(=O)[C@H]1CC[C@H](CNc2nc(NCc3ccccc3Br)cc(-c3ccccc3)n2)CC1` stands 7.11 µM; under `Cc1ccc(-c2cc(C)nc(NC[C@H]3CC[C@H](C(=O)O)CC3)n2)cc1`, 2.7 µM; under `O=C(O)[C@H]1CC[C@H](CNc2nc(-c3ccccc3)cc(-c3ccc(F)cc3)n2)CC1`, 0.742 µM.
With `COC(=O)[C@H]1CC[C@H](CNc2nc(NCc3ccccc3)cc(-c3ccccc3)n2)CC1`, the IC50 result in test [2] (hct-116) is given as “Not Active”.
